Measurements published in PubChem BioAssay AID200 (DTP/NCI, 2004).
Values joined by “and” are separate entries in the source; they are usually repeats but may differ in a detail not shown here. Identical values can stand only once. Toxic doses and inconclusive results are not listed.

Test system: B6C3F1 mice, B16 melanoma ip, median survival T/C
Experiment: NCI In Vivo Anticancer Drug Screen. Data for tumor model B16 Melanoma (intraperitoneal) in B6C3F1 mice
Conditions: endpoint: median survival time, higher = longer survival
Procedure, shortened: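 Transplantable tumor in mice; treated vs vehicle control groups; survival or tumor size measured; value = T/C ratio.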

[1] = dose: 12.5 mg/kg/injection, schedule: Q01DX009 (ip), vehicle: saline
[2] = dose: 25.0 mg/kg/injection, schedule: Q01DX009 (ip), vehicle: saline
[3] = dose: 6.25 mg/kg/injection, schedule: Q01DX009 (ip), vehicle: water
[4] = dose: 12.5 mg/kg/injection, schedule: Q01DX009 (ip), vehicle: water
[5] = dose: 25.0 mg/kg/injection, schedule: Q01DX009 (ip), vehicle: water
[6] = dose: 6.25 mg/kg/injection, schedule: Q01DX009 (ip), vehicle: saline with Tween-80
[7] = dose: 12.5 mg/kg/injection, schedule: Q01DX009 (ip), vehicle: saline with Tween-80
[8] = dose: 25.0 mg/kg/injection, schedule: Q01DX009 (ip), vehicle: saline with Tween-80
[9] = dose: 50.0 mg/kg/injection, schedule: Q01DX009 (ip), vehicle: saline with Tween-80
[10] = dose: 100.0 mg/kg/injection, schedule: Q01DX009 (ip), vehicle: saline with Tween-80
[11] = dose: 50.0 mg/kg/injection, schedule: Q01DX009 (ip), vehicle: saline
[12] = dose: 100.0 mg/kg/injection, schedule: Q01DX009 (ip), vehicle: saline
[13] = dose: 100.0 mg/kg/injection, schedule: Q01DX009 (ip), vehicle: Klucel (hydroxypropylcellulose) (HPC)

NCCSC(C[N+](=O)[O-])c1ccccc1Cl (centres undefined)
T/C (dose: 6.25 mg/kg/injection, schedule: Q01DX009 (ip), vehicle: saline): 103 % of control | T/C [1]: 114 % of control | T/C [2]: 93 % of control

CO[C@H](C(=O)[C@@H](O)[C@@H](C)O)[C@@H]1Cc2cc3cc(OC4CC(OC5CC(O)C(O)C(C)O5)C(O)C(C)O4)c(C)c(O)c3c(O)c2C(=O)[C@H]1OC1CC(OC2CC(OC3CC(C)(O)C(O)C(C)O3)C(O)C(C)O2)C(O)C(C)O1 (some centres undefined)
T/C (dose: 0.06 mg/kg/injection, schedule: Q01DX009 (ip), vehicle: saline): 111 % of control | T/C (dose: 0.12 mg/kg/injection, schedule: Q01DX009 (ip), vehicle: saline): 101 % of control | T/C (dose: 0.25 mg/kg/injection, schedule: Q01DX009 (ip), vehicle: saline): 101 % of control | T/C (dose: 0.5 mg/kg/injection, schedule: Q01DX009 (ip), vehicle: saline): 117 % of control | T/C (dose: 1.0 mg/kg/injection, schedule: Q01DX009 (ip), vehicle: saline): 105 % of control | T/C (dose: 2.0 mg/kg/injection, schedule: Q01DX009 (ip), vehicle: saline): 113 % of control

O=NNc1cccnc1
T/C [3]: 107 % of control | T/C [4]: 121 % of control | T/C [5]: 111 % of control | T/C (dose: 50.0 mg/kg/injection, schedule: Q01DX009 (ip), vehicle: water): 100 % of control | T/C (dose: 100.0 mg/kg/injection, schedule: Q01DX009 (ip), vehicle: water): 107 % of control

CCC1=C[C@H]2CN(CCc3c([nH]c4ccccc34)[C@@](C(=O)OC)(c3cc4c(cc3OC)N(C)[C@H]3[C@@](O)(C(=O)NN)[C@H](O)[C@]5(CC)C=CCN6CC[C@]43[C@@H]65)C2)C1
T/C (dose: 15.62 micrograms/kg/injection, schedule: Q01DX009 (ip), vehicle: water): 116 % of control | T/C (dose: 31.25 micrograms/kg/injection, schedule: Q01DX009 (ip), vehicle: water): 119 % of control | T/C (dose: 125.0 micrograms/kg/injection, schedule: Q01DX009 (ip), vehicle: water): 167 % of control | T/C (dose: 250.0 micrograms/kg/injection, schedule: Q01DX009 (ip), vehicle: water): 166 % of control | T/C (dose: 500.0 micrograms/kg/injection, schedule: Q01DX009 (ip), vehicle: water): 176 % of control

Nc1nc2ccc(NCc3ccc(C(=O)NC(CCC(=O)O)C(=O)O)cc3)cc2c(=O)[nH]1 (centres undefined)
T/C [6]: 88 % of control | T/C [7]: 91 % of control | T/C [8]: 97 % of control | T/C [9]: 91 % of control | T/C [10]: 93 % of control

COc1cccc2c1C(=O)c1c(O)c3c(c(O)c1C2=O)C[C@@](O)(C(=O)CO)C[C@@H]3OC1CC(NC(=O)C(N)CC(C)C)C(O)C(C)O1 (some centres undefined)
T/C (dose: 6.25 mg/kg/injection, schedule: Q01DX001 (ip), vehicle: saline): 192 % of control | T/C (dose: 12.5 mg/kg/injection, schedule: Q01DX001 (ip), vehicle: saline): 192 % of control | T/C (dose: 25.0 mg/kg/injection, schedule: Q01DX001 (ip), vehicle: saline): 269 % of control | T/C (dose: 50.0 mg/kg/injection, schedule: Q01DX001 (ip), vehicle: saline): 183 % of control

C[CH2][Pb]([CH2]C)([CH2]C)[O]C(=O)COc1ccccc1
T/C (dose: 0.38 mg/kg/injection, schedule: Q01DX009 (ip), vehicle: Klucel (hydroxypropylcellulose) (HPC)): 94 % of control | T/C (dose: 0.75 mg/kg/injection, schedule: Q01DX009 (ip), vehicle: Klucel (hydroxypropylcellulose) (HPC)): 105 % of control | T/C (dose: 1.5 mg/kg/injection, schedule: Q01DX009 (ip), vehicle: Klucel (hydroxypropylcellulose) (HPC)): 101 % of control | T/C (dose: 3.0 mg/kg/injection, schedule: Q01DX009 (ip), vehicle: Klucel (hydroxypropylcellulose) (HPC)): 91 % of control | T/C (dose: 6.0 mg/kg/injection, schedule: Q01DX009 (ip), vehicle: Klucel (hydroxypropylcellulose) (HPC)): 97 % of control

CN(CCN(C)C(=O)CCOS(C)(=O)=O)C(=O)CCOS(C)(=O)=O
T/C [1]: 113 % of control | T/C [2]: 161 % of control | T/C [11]: 203 % of control and 219 % of control | T/C [12]: 213 % of control and 263 % of control | T/C (dose: 200.0 mg/kg/injection, schedule: Q01DX009 (ip), vehicle: saline): 102 % of control

Oc1cc(O)cc(/C=C/c2ccc(O)c(O)c2)c1
T/C (dose: 6.25 mg/kg/injection, schedule: Q01DX009 (ip), vehicle: DMSO): 118 % of control | T/C (dose: 12.5 mg/kg/injection, schedule: Q01DX009 (ip), vehicle: DMSO): 111 % of control | T/C (dose: 50.0 mg/kg/injection, schedule: Q01DX009 (ip), vehicle: DMSO): 117 % of control | T/C (dose: 100.0 mg/kg/injection, schedule: Q01DX009 (ip), vehicle: DMSO): 113 % of control and 96 % of control

Nc1nc(Cl)c2ncn(C3OC(CO)C(O)C3O)c2n1 (centres undefined)
T/C [10]: 98 % of control | T/C (dose: 200.0 mg/kg/injection, schedule: Q01DX009 (ip), vehicle: saline with Tween-80): 100 % of control | T/C (dose: 400.0 mg/kg/injection, schedule: Q01DX009 (ip), vehicle: saline with Tween-80): 101 % of control

CCC/C=C/C=C/C(=O)OC1/C(=C/C(=O)OC)CC2CC(C(C)O)OC(=O)CC(O)CC3CC(OC(C)=O)C(C)(C)C(O)(CC4C/C(=C/C(=O)OC)CC(/C=C/C(C)(C)C1(O)O2)O4)O3 (centres undefined)
T/C (dose: 4.69 micrograms/kg/injection, schedule: Q01DX009 (ip), vehicle: saline + alcohol): 94 % of control | T/C (dose: 9.38 micrograms/kg/injection, schedule: Q01DX009 (ip), vehicle: saline + alcohol): 100 % of control | T/C (dose: 18.75 micrograms/kg/injection, schedule: Q01DX009 (ip), vehicle: saline + alcohol): 116 % of control and 104 % of control | T/C (dose: 37.5 micrograms/kg/injection, schedule: Q01DX009 (ip), vehicle: saline + alcohol): 111 % of control and 96 % of control | T/C (dose: 75.0 micrograms/kg/injection, schedule: Q01DX009 (ip), vehicle: saline + alcohol): 99 % of control and 105 % of control

CC(C)(C)N(C(=O)OCC1c2ccccc2-c2ccccc21)C(CO)C(=O)O (centres undefined)
T/C [13]: 96 % of control

CN(C)c1ccc(C(=C2C=CC(=[N+](C)C)C=C2)c2ccc(N(C)C)cc2)cc1 (tested in a mixture with another compound)
T/C (dose: 0.62 mg/kg/injection, schedule: Q01DX009 (ip), vehicle: saline): 95 % of control | T/C (dose: 1.25 mg/kg/injection, schedule: Q01DX009 (ip), vehicle: saline): 105 % of control | T/C (dose: 2.5 mg/kg/injection, schedule: Q01DX009 (ip), vehicle: saline): 104 % of control

N/C(=N\OC(=O)Nc1ccc(CSc2ccc(Cl)cc2)o1)c1ccccn1
T/C (dose: 12.5 mg/kg/injection, schedule: Q01DX009 (ip), vehicle: Klucel (hydroxypropylcellulose) (HPC)): 97 % of control | T/C (dose: 25.0 mg/kg/injection, schedule: Q01DX009 (ip), vehicle: Klucel (hydroxypropylcellulose) (HPC)): 95 % of control | T/C (dose: 50.0 mg/kg/injection, schedule: Q01DX009 (ip), vehicle: Klucel (hydroxypropylcellulose) (HPC)): 91 % of control | T/C [13]: 91 % of control | T/C (dose: 200.0 mg/kg/injection, schedule: Q01DX009 (ip), vehicle: Klucel (hydroxypropylcellulose) (HPC)): 86 % of control

O=C1C2C3C=CC(C2C(=O)N1CO)C1C2C(=O)N(CO)C(=O)C2C31 (centres undefined)
T/C [3]: 102 % of control | T/C [4]: 109 % of control | T/C [5]: 113 % of control

O=c1n(CC2CO2)c(=O)n(CC2CO2)c(=O)n1CC1CO1 (centres undefined)
T/C (dose: 3.12 mg/kg/injection, schedule: Q01DX009 (ip), vehicle: saline): 121 % of control | T/C (dose: 5.0 mg/kg/injection, schedule: Q01DX009 (ip), vehicle: saline): 155 % of control | T/C [6]: 171 % of control | T/C (dose: 6.25 mg/kg/injection, schedule: Q01DX009 (ip), vehicle: suspension in saline): 178 % of control and 152 % of control | T/C (dose: 10.0 mg/kg/injection, schedule: Q01DX009 (ip), vehicle: saline): 186 % of control | T/C [7]: 212 % of control and 153 % of control | T/C [1]: 188 % of control | T/C (dose: 12.5 mg/kg/injection, schedule: Q01DX009 (ip), vehicle: suspension in saline): 211 % of control and 172 % of control | T/C (dose: 20.0 mg/kg/injection, schedule: Q01DX009 (ip), vehicle: saline): 228 % of control | T/C [8]: 263 % of control and 197 % of control | T/C [2]: 205 % of control and 227 % of control and 170 % of control | T/C (dose: 25.0 mg/kg/injection, schedule: Q01DX009 (ip), vehicle: suspension in saline): 282 % of control and 235 % of control | T/C (dose: 40.0 mg/kg/injection, schedule: Q01DX009 (ip), vehicle: saline): 261 % of control | T/C [9]: 233 % of control | T/C [11]: 234 % of control and 172 % of control | T/C (dose: 50.0 mg/kg/injection, schedule: Q01DX009 (ip), vehicle: suspension in saline): 255 % of control | T/C [12]: 191 % of control
